The source of these data is patent publication US5166198A, “Antiviral phosphonylalkoxy purines” (Beecham p.l.c., priority 1989, dated 1992).

SMILES strings stand for the structures. Values after ≈ are worked out from the molar mass of the structure shown.

What all share (type): cell-based
For assay [1], the system named is visna virus (strain K184). The assay can be described thus: CPE Inhibition Test (Established Monolayer) for Lentiviruses (in SCP cells). The note with it: Visna-maedi virus, read-out: MIC Visna Virus (minimum concentration giving complete protection of the cell monolayers). Here is the method: 3. CPE Inhibition Test (Established Monolayer) for Lentiviruses
3×10^4 sheep choroid plexus (SCP) cells were plated into individual wells of a 96 well microtitre plate in 100 μl of Eagle's MEM with Hanks' salts containing 10% heat inactivated foetal calf serum (FCS). When monolayers had become established (after 1 or 2 days growth) they were washed with 200 μl of maintenance medium (Eagle's MEM with Hanks' salts containing 0.5% FCS) and infected with 100 μl of visna virus (strain K184) in maintenance medium (30 TCID50 /ml). Test samples were diluted with maintenance medium in further 96 well microtitre plates over the range 200-0.06 μg/ml by 3-fold dilution steps. 100 μl of the diluted samples was then transferred directly onto virus-infected monolayers (final concentration range therefore […]) and incubated at in a humidified atmosphere containing 5% CO2 until virus-induced CPE was maximal in the untreated virus-infected controls (usually 12-14 days). The plates were fixed with formal saline and stained with crystal violet. Virus-induced CPE was then scored microscopically and the minimum concentration of sample giving complete protection of the cell monolayers (MIC) determined.

For assay [2], the system named is herpes simplex virus 1 (HSV-1; strain HFEM). The assay can be described thus: Plaque Reduction Test for Herpes Simplex Virus 1 (in Vero cells). The following applies: Human alphaherpesvirus 1, read-out: IC50 Herpes Simplex virus Type 1. Here is the method:
(§1) 1. Plaque Reduction Test for Herpes Simplex Viruses 1 and 2.
(§2) Cells (Vero or MRC-5) were grown to confluence in 24 well multi-dishes (well diameter=1.5 cm). The drained cell monolayers were each infected with approximately 50 infectious particles of herpes simplex virus 1 (HSV-1; strain HFEM) or herpes simplex virus 2 (HSV-2; strain MS) in 100 μl of phosphate-buffered saline. The virus was adsorbed for 1 hour at room temperature. After adsorption, residual inoculum was removed from each well and replaced with 0.5 ml of Eagle's MEM containing 5% newborn calf serum and 0.9% agarose (A37). Once the agarose had set, dilutions of the test compound, which had been prepared in Eagle's MEM (containing 5% newborn calf serum), were added, each well receiving 0.5 ml of liquid overlay. The test compound was diluted to give the following series of concentrations: 200, 60, 20, 6 . . . 0.06 μg/ml; final concentrations in the assay ranged, therefore, between 100 μg/ml and 0.03 μg/ml. The infected cultures were incubated at 37° C. in a humidified atmosphere of 5% CO2 until plaques were clearly visible (2 or 3 days for Vero cells, usually 1 day for MRC-5 cells).
(§3) Cultures from 1 and 2 were fixed in formal saline, the agarose overlays were carefully washed off, and then the cell monolayers were stained with carbol fuchsin. A stereo microscope was used to count plaques. The IC50 (concentration of drug which inhibits the number of plaques formed by 50% relative to the number of plaques observed in virus control monolayers) of the test compound was calculated. In addition, the monolayers were examined for evidence of drug-induced cytotoxicity; the minimum concentration at which cytotoxicity occurs was recorded.

Assay [3] concerns herpes simplex virus 2 (HSV-2; strain MS). The assay can be described thus: Plaque Reduction Test for Herpes Simplex Virus 2 (in MRC-5 cells). The note with it: Human alphaherpesvirus 2, MRC5; MS strain in MRC-5 cells; read-out: IC50 Herpes Simplex virus Type 2. Here is the method: as §1, §2, §3
Assay [4] concerns varicella zoster virus (VZV; Ellen strain). As to the kind of experiment: Plaque Reduction Test for Varicella Zoster-Virus (in MRC-5 cells). The following applies: Human alphaherpesvirus 3, MRC5; Ellen strain in MRC-5 cells. The method, then:
2. Plaque Reduction Test for Varicella Zoster-Virus
as §2, with “MRC-5 cells” for “Cells (Vero or MRC-5)”, “varicella zoster” for “herpes simplex”, “(VZV; Ellen strain)” for “1 (HSV-1; strain HFEM) or herpes simplex virus 2 (HSV-2; strain MS)”, “heat-inactivated foetal” for “newborn”, “(5” for “(2”, “6 days).” for “3 days for Vero cells, usually 1 day for MRC-5 cells).”
as §3

For `Nc1nc2c(ncn2OCCCP(=O)(O)O)c(=O)[nH]1` [Example 1, 9-(3-Phosphonopropoxy)guanine], in assay [1], the MIC was 3 µg/mL (≈ 10.4 µM). Further, the half-maximal inhibitory concentration (IC50) in assay [2] was over 100 µg/mL; in assay [3], over 100 µg/mL; in assay [4], 73 µg/mL (≈ 252 µM).
Consider `Nc1nc2c(ncn2OCCCCP(=O)(O)O)c(=O)[nH]1` [Example 3, 9-(4-Phosphonobutoxy)guanine], for which the MIC in assay [1] was 1 µg/mL (≈ 3.3 µM). For the same compound, the IC50 in assay [2] is 62 µg/mL (≈ 204 µM); in assay [3], 23 µg/mL (≈ 75.9 µM); in assay [4] it was 6 µg/mL (≈ 19.8 µM).
`Nc1nc(N)c2ncn(OCCCCP(=O)(O)O)c2n1` [Example 5, 2,6-Diamino-9-(4-phosphonobutoxy)purine]: the MIC in assay [1] was 10 µg/mL (≈ 33.1 µM). The 50% inhibitory concentration (IC50) in assay [2] was over 100 µg/mL; in assay [3] it was over 100 µg/mL; in assay [4], 17 µg/mL (≈ 56.2 µM).
With `Nc1ncnc2c1ncn2OCCCCP(=O)(O)O` [Example 7, 9-(4-Phosphonobutoxy)adenine], the MIC in assay [1] came out at 100 µg/mL (≈ 348 µM). The IC50 in assay [2], in assay [3] and in assay [4] was over 100 µg/mL each time.
For `Nc1ncnc2c1ncn2OC(CO)CCP(=O)(O)O` (stereo not shown) [Example 11], the MIC in assay [1] was found to be 30 µg/mL (≈ 98.9 µM). The IC50 in assay [2], in assay [3] and in assay [4] was over 100 µg/mL each time.
Turning to `Nc1nc2c(ncn2OCC(O)CCP(=O)(O)O)c(=O)[nH]1` (stereo not shown) [Example 13, 9-(2-Hydroxy-4-phosphonobutoxy)guanine], the MIC in assay [1] was found to be 10 µg/mL (≈ 31.3 µM). For the same compound, the IC50 in assay [2] is over 100 µg/mL; in assay [3], over 100 µg/mL; in assay [4], 29 µg/mL (≈ 90.8 µM).
As to `Nc1ncnc2c1ncn2OCC(O)CCP(=O)(O)O` (stereo not shown) [Example 15, 9-(2-Hydroxy-4-phosphonobutoxy)adenine], in assay [1], the MIC came to 100 µg/mL (≈ 330 µM). Further, the IC50 in assay [2], in assay [3] and in assay [4] was over 100 µg/mL throughout.
For the compound `Nc1nc2c(ncn2OC(CO)CCP(=O)(O)O)c(=O)[nH]1` (stereo not shown) [Example 16, 9-[1-(Hydroxymethyl)-3-phosphonopropoxy]guanine], in assay [1], the MIC turned out to be 100 µg/mL (≈ 313 µM). For the same compound, the IC50 in assay [2], in assay [3] and in assay [4] was over 100 µg/mL in each case.
As to `Nc1nc2c(ncn2OCC(CO)CCP(=O)(O)O)c(=O)[nH]1` (stereo not shown) [Example 18, 9-[2-(Hydroxymethyl)-4-phosphonobutoxy]guanine], the MIC in assay [1] worked out at 1 µg/mL (≈ 3 µM). Besides, the 50% inhibitory concentration (IC50) is over 100 µg/mL in assay [2], over 100 µg/mL in assay [3] and 5 µg/mL (≈ 15 µM) in assay [4].
Consider `Nc1nc(N)c2ncn(OCC(CO)CCP(=O)(O)O)c2n1` (stereo not shown) [Example 20], for which the MIC in assay [1] amounted to 10 µg/mL (≈ 30.1 µM). In addition, the half-inhibitory concentration (IC50) in assay [2] was over 100 µg/mL; in assay [3], over 100 µg/mL; in assay [4], 17 µg/mL (≈ 51.2 µM).
